SMILES strings stand for the structures. Values joined by “and” are separate entries in the source; they are usually repeats but may differ in a detail not shown here. Equal entries are not always repeated.

For the experiment, the target named is human indoleamine 2,3-dioxygenase (hIDO) (Homo sapiens, UniProt P14902). The experiment can be described thus: steady-state dioxygenase activity of hIDO.
[1] abbreviates: compound as substrate, no IDE, pH 7.4, air-saturated, kcat = Vmax/[hIDO].
Where [2] appears, read: L-Trp reaction in the presence of 2.5 mM IDE, pH 7.4.
Setting [3] is: L-Trp reaction in the presence of 5.1 mM IDE, pH 7.4.

human indoleamine 2,3-dioxygenase (hIDO), sequence (P14902 whole entry): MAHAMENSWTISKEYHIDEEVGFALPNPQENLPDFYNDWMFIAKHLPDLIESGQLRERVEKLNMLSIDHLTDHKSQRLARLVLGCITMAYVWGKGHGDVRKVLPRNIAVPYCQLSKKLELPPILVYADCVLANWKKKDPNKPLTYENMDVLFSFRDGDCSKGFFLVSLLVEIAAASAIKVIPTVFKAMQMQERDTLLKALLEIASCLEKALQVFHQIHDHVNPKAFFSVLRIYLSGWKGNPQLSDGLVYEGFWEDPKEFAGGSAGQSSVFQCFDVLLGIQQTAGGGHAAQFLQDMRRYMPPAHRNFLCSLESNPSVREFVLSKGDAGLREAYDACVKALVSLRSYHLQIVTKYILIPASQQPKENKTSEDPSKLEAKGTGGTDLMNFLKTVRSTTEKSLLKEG

On to `N[C@H](Cc1c[nH]c2ccccc12)C(=O)O` [D-Trp], for which the substrate inhibition entry (activity as a function of substrate concentration, Figure 1b) is “No substrate inhibition was observed”. Further, where the note is “compound as substrate”, the Michaelis-Menten constant (Km) was found to be 2600 µM; the “Km, fold larger as compared to the L-Trp reaction” value worked out at 170 fold; the “kcat, fold faster as compared to the L-Trp reaction” value is recorded as 2 fold. The Km (compound as substrate, no IDE, pH 7.4, air-saturated) turned out to be 2600 µM. Moreover, the kcat under setting [1] was 5.9 s⁻¹ and 5.9 ± 0.3 s⁻¹.

`OCCc1c[nH]c2ccccc12` [IDE, 3-Indole Ethanol]: under setting [2], the Ksi stood at 0.48 ± 0.05 mM and the catalytic constant (kcat) is 3.2 ± 0.4 s⁻¹. Besides, under setting [3], the Ksi is 1.0 ± 0.1 mM and the kcat amounted to 3.5 ± 0.6 s⁻¹.

Take `N[C@@H](Cc1c[nH]c2ccccc12)C(=O)O` [L-Trp, L-tryptophan]: the kcat under setting [1] turned out to be 3.1 ± 0.2 s⁻¹. In addition, the “Ksi (self-inhibition / substrate-inhibition constant)” value (compound as substrate, no IDE, pH 7.4, fit with eq 1) is 0.17 mM and 0.17 ± 0.2 mM.

As for `CO[C@@]12[C@H](COC(N)=O)C3=C(C(=O)C(C)=C(N)C3=O)N1C[C@@H]1N[C@@H]12` [MtoC, Mitomycin C], the mode of inhibition entry (Lineweaver–Burk plot of L-Trp reaction) is listed as “uncompetitive”.

The values are drawn from article PMC5448288 (Journal of the American Chemical Society, 2009).
